This is an account of results in PubChem BioAssay AID608 (Sanford-Burnham Center for Chemical Genomics, 2007).

For orientation: Kd means a measure of binding affinity in units of concentration.

Calls of active or inactive are those of the source. The rule behind the calls is not given here.

The target in this test is Peptidyl-prolyl cis-trans isomerase FKBP1A (Homo sapiens) (UniProt P62942). As to the kind of experiment: FKBP12 binders, biophysical, NMR detection (AID 608). The settings on record: NMR binding, purified FKBP12.
Sequence of Peptidyl-prolyl cis-trans isomerase FKBP1A (Homo sapiens) (P62942 whole entry, looked up): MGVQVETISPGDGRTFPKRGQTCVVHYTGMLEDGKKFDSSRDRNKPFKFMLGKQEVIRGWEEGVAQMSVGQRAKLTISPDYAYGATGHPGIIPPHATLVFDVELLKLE
As for `Clc1ccccc1OCc1nc(-c2ccccn2)no1`, the Kd is > 4 mM (inactive). Next, `Cn1c(SCC(N)=O)nnc1-c1cccnc1`: > 4 mM (inactive).

With `Nc1c(C(=O)O)sc2ncccc12`, the Kd is > 4 mM (inactive). Next, `NC(=O)c1cccc(N2C(=O)C=CC2=O)c1`: > 4 mM (inactive). Next, `CC(=O)Nc1ccc(Cl)c(C(N)=O)c1`: > 4 mM (inactive); `CC1CN(C2=NCCN2)CC(C)O1` (configuration not stated): > 4 mM (inactive); `Brc1ccccc1Cn1c(-c2cscn2)nc2ccccc21`: “inactive”.

As to `Cc1n[nH]c(C)c1CC(=O)O`, the Kd is > 4 mM (inactive). Next, `Cc1cc(C(=O)Nc2sc(C)c(C)c2C#N)c(C)o1`: > 4 mM (inactive); `O=C(Nn1cnnc1)c1csc2c1CCCC2`: > 4 mM (inactive); `Nc1nc(SCc2ccc3c(c2)OCO3)n[nH]1`: > 4 mM (inactive). Next, `O=c1cc(O)n(-c2ccc(F)cc2)c(=S)[nH]1`: > 4 mM (inactive); `CCOC(=O)c1nc2ccccc2c(=O)n1N`: > 4 mM (inactive). Next, `CC12CNCC(C)(CNC1)C2O` (configuration not stated): > 4 mM (inactive).

For the molecule `N/C(=N/S(=O)(=O)c1cccs1)c1ccccc1`, the Kd was > 4 mM (inactive). Next, `Cc1cc(C(=O)Nc2ccon2)cs1`: > 4 mM (inactive). The result for `Cc1c(-c2ccccc2)[n+](=O)c(-c2ccco2)c(C)n1[O-]` reads > 4 mM (inactive). Next, `NS(=O)(=O)c1ccc2c3c(cccc13)C(=O)N2`: > 4 mM (inactive); `COc1ccc(-c2cc(=O)c3c(O)cc(O[C@H]4O[C@H](CO[C@@H]5O[C@@H](C)[C@H](O)[C@@H](O)[C@H]5O)[C@@H](O)[C@H](O)[C@H]4O)cc3o2)cc1`: > 4 mM (inactive); `COC(=O)C[C@H]1C(C)(C)C(=O)[C@@H]2CC3=C4CC(=O)O[C@@H](c5ccoc5)[C@]4(C)CCC3C1(C)C2=O` (some centres not stated): > 4 mM (inactive). As to `COc1cccc(-c2nc(-c3ccccn3)no2)c1OC`, the Kd was > 4 mM (inactive). Next, `Cn1cc(Cl)c(C(=O)Nc2ccc(F)cc2F)n1`: > 4 mM (inactive).

`COC1=CC(=O)C[C@@H](C)[C@]12Oc1c(Cl)c(OC)cc(OC)c1C2=O`: the Kd is > 4 mM (inactive). For the molecule `OC1(c2ccc(Cl)cc2)CCNCC1`, the Kd was > 4 mM (inactive). Regarding `O=C1NCCCC1C(=O)N1CCCCC1` (configuration not stated), the Kd was > 4 mM (inactive). Consider `O=c1c2ccccc2nc2n1CCC2O` (configuration not stated), for which the Kd is > 4 mM (inactive). Next, `Cc1cc2ncc(C(=O)O)c(C)n2n1`: > 4 mM (inactive); `O=C(O)c1ccnc2ccccc12`: > 4 mM (inactive).

On to `CC(=O)NC1=C(N(C)C)C(=O)c2ccccc2C1=O`, for which the Kd is > 4 mM (inactive). On to `CN(C)S(=O)(=O)c1ccccc1C#N`, for which the Kd is > 4 mM (inactive). With `CC1CN(C(=O)c2sc3ccccc3c2Cl)CC(C)O1` (configuration not stated), the Kd entry is “inactive”. Next, `CC(=O)Nc1nnc(-c2ccco2)o1`: > 4 mM (inactive). As to `O=C1C2C3CCC(O3)C2C(=O)N1c1cccc(F)c1` (configuration not stated), the Kd is > 4 mM (inactive). The result for `OCc1ccc2occc2c1` reads > 4 mM (inactive); that for `Cc1ccc(C(=O)N2CC(=O)NC(=O)C2)cc1`, > 4 mM (inactive); that for `CN1C(=O)CC(=O)N(C)c2ccccc21`, > 4 mM (inactive). The result for `NC(=O)Cn1nc(-c2ccco2)ccc1=O` reads > 4 mM (inactive); that for `NC(=O)c1ccsc1NC(=O)c1ccco1`, > 4 mM (inactive). Next, `C=C(C)[C@H]1Cc2c(ccc3c2O[C@@H]2COc4cc(OC)c(OC)cc4[C@@H]2C3=O)O1`: > 4 mM (inactive); `CN1CCC(NC(=O)c2ccccc2[N+](=O)[O-])CC1`: > 4 mM (inactive); `CNC(=O)C(=O)Nc1c(C)cccc1C`: > 4 mM (inactive). For `CCOC(=O)CC1Sc2ccccc2NC1=S` (configuration not stated), the Kd is > 4 mM (inactive). Consider `O=CN1CCN(C(=O)c2ccco2)CC1`, for which the Kd was > 4 mM (inactive). The result for `COC(=O)c1sc(N)nc1C` reads > 4 mM (inactive). Next, `COC1=CC(=O)C=C(OC)C1=O`: > 4 mM (inactive); `CC(=O)Oc1ccccc1N1C(=O)C=CC1=O`: > 4 mM (inactive).

On to `COC(=O)C(O)[C@@H]1C2(C)C(=O)[C@@H](CC3=C4CC(=O)O[C@@H](c5ccoc5)[C@]4(C)CCC32)[C@H](OC(C)=O)C1(C)C` (some centres not stated), for which the Kd was > 4 mM (inactive). The result for `COC(=O)[C@]1(C)CC[C@]2(C)CC[C@]3(C)C4=CC=C5C(=CC(=O)C(O)=C5C)[C@]4(C)CC[C@@]3(C)[C@@H]2C1` reads > 4 mM (inactive); that for `O=C(NCc1ccccn1)c1ccccc1Cl`, > 4 mM (inactive); that for `CC(C)C(C)/C=C/C(C)[C@H]1CCC2C3=CCC4CC(=O)CC[C@]4(C)C3CC[C@@]21C` (some centres not stated), > 4 mM (inactive). The result for `Cc1nc(NC2=NCCC(=O)N2)nc2ccccc12` reads > 4 mM (inactive). Next, `c1ccc(Cn2cccc2)nc1`: > 4 mM (inactive). As to `COc1cc(C(=S)N2CCC(C(N)=O)CC2)ccc1O`, the Kd was > 4 mM (inactive). On to `O=C(NCCO)c1ccccc1I`, for which the Kd is > 4 mM (inactive). Next, `O=C(O)C1CSC(c2ccccc2)N1` (configuration not stated): > 4 mM (inactive); `Cc1cc2nc(SCC(=O)O)nc(C)c2cc1C`: > 4 mM (inactive); `CC(=O)Oc1ccc(N2C(=O)C3C4C=CC(O4)C3C2=O)cc1` (configuration not stated): > 4 mM (inactive). Next, `Cc1occc1C(=O)NC1CCN(C)CC1`: > 4 mM (inactive); `Cc1cc2nc3c(=O)[nH]c(=O)nc-3n(CC(O)C(O)C(O)CO)c2cc1C` (configuration not stated): > 4 mM (inactive); `COc1ccccc1-c1nc(=S)[nH][nH]1`: > 4 mM (inactive).

Consider `CCNS(=O)(=O)c1cc(Br)ccc1OC`, for which the Kd was > 4 mM (inactive). Next, `CCCCCc1c2c(cc(O)c1C(=O)O)OC(=O)c1c(cc(OC)cc1C(=O)CCCC)O2`: > 4 mM (inactive); `Cc1cc(C)n(-c2cccc3cccnc23)n1`: > 4 mM (inactive). Regarding `Cc1cc(O)c(NC(=O)c2ccco2)cc1C`, the Kd was > 4 mM (inactive). Next, `O=C(CSc1ncn[nH]1)c1ccc2c(c1)OCO2`: > 4 mM (inactive). Next, `S=C(CN1CCCC1=S)N1CCOCC1`: > 4 mM (inactive); `CC(=O)O[C@@H]1CC2C(C)(C)C(=O)[C@@H]3O[C@@H]3[C@]2(C)C2CC[C@]3(C)C(=CC(=O)O[C@H]3c3ccoc3)[C@@]21C` (some centres not stated): > 4 mM (inactive). Next, `Clc1ccc(SCCn2cncn2)cc1`: > 4 mM (inactive); `COc1cc(S(=O)(=O)Nc2cccnc2)ccc1F`: > 4 mM (inactive); `COc1cc([C@@H]2c3cc4c(cc3[C@H](OC(C)=O)[C@H]3COC(=O)[C@@H]23)OCO4)cc(OC)c1OC`: > 4 mM (inactive). As for `COc1c(-c2coc3cc4c(cc3c2=O)CC(O)C(C)(C)O4)ccc2c1C=CC(C)(C)O2` (configuration not stated), the Kd was > 4 mM (inactive). Next, `COc1cc2c(cc1OC)C(=O)OC2`: > 4 mM (inactive). Next, `NC(=O)CC1Sc2ccccc2NC1=O` (configuration not stated): > 4 mM (inactive). The result for `S=c1ccc(N2CCCCC2)n[nH]1` reads > 4 mM (inactive); that for `CC(C)(O)[C@@H]1Cc2cc3ccc(=O)oc3cc2O1`, > 4 mM (inactive). As for `CC1=NCCc2c1[nH]c1cc(O)ccc21`, the Kd is > 4 mM (inactive). With `CC(=O)N1CCC(NC2CCCCCC2)CC1`, the Kd was > 4 mM (inactive). Next, `O=C1C=CC(=O)N1c1ccccc1O`: > 4 mM (inactive). Next, `O=C(Nc1ccon1)c1csc2c1CCCC2`: > 4 mM (inactive); `CNC(=O)C1CC(=O)N(c2ccc(O)cc2)C1` (configuration not stated): > 4 mM (inactive); `Cc1cc(C)n(C2CCS(=O)(=O)C2)n1` (configuration not stated): > 4 mM (inactive).

As for `NC(=O)CN1CCCCCC1=O`, the Kd is > 4 mM (inactive).

For `CCOC(=O)Nc1ccc2c(C)cc(=O)oc2c1`, the Kd is > 4 mM (inactive). The result for `O=S1(=O)CCC(NCCO)C1` (configuration not stated) reads > 4 mM (inactive). Next, `Cc1cccc(C)c1NC(=O)/C=C/C(=O)O`: > 4 mM (inactive). For the molecule `CC1CCc2cc(F)ccc2N1C(=O)c1ccc(=O)[nH]n1` (configuration not stated), the Kd is > 4 mM (inactive).

Regarding `CCOC(=O)c1cc(C)[nH]n1`, the Kd is > 4 mM (inactive). The result for `O=C(c1ccc(F)cc1)C1CCNCC1` reads > 4 mM (inactive). Next, `O=C(NCO)c1ccccc1Cl`: > 4 mM (inactive).

`Cc1cc(=O)cc(C)n1-c1ccccc1N`: the Kd is > 4 mM (inactive). On to `Cc1cc(=O)[nH]c(N)n1`, for which the Kd was > 4 mM (inactive).

As for `Cc1c(F)cccc1NS(=O)(=O)c1ccccc1C#N`, the Kd was > 4 mM (inactive). The result for `Nc1nc2ccc(S(N)(=O)=O)cc2s1` reads > 4 mM (inactive); that for `CCSc1nc(=S)n(CC)c(C)c1C(C)=O`, > 4 mM (inactive).

On to `OCC1CCN(Cc2ccccc2)CC1`, for which the Kd is > 4 mM (inactive). Next, `CC(C)CCCC(C)[C@H]1CCC2C3CC[C@H]4CC(=O)CC[C@]4(C)C3CC[C@@]21C` (some centres not stated): > 4 mM (inactive); `Cc1ccc(-c2c(C)n([O-])c(C)c(C)[n+]2=O)cc1`: > 4 mM (inactive). The result for `O=C1CCC(=O)N1c1ccc(F)cc1` reads > 4 mM (inactive). Next, `CC1=C(C(=O)Nc2ccccc2)SCCO1`: > 4 mM (inactive); `COc1nc(-c2ccccc2)ccc1-c1noc(C)n1`: > 4 mM (inactive); `c1ccc(-n2cnnc2)nc1`: > 4 mM (inactive). As to `COc1ccc2c(c1)[n+](=O)c(C(C)=O)c(C)n2[O-]`, the Kd was > 4 mM (inactive).
